Reference: patent US20260207633A1, “COMPOSITION COMPRISING POLAR LIPIDS AND METHOD OF MAKING SAME” (VAXA TECHNOLOGIES LTD, priority 2021, published 2026)

Experiments:
[1] = system: individuals with insomnia; conditions: cited from earlier work
[2] = system: participants with poor sleeping quality (PSQI 11-13); experiment: Sleep quality tracked monthly with the Pittsburgh Sleep Quality Index (PSQI), 6 groups of 3 participants; assay type: in vivo, human; conditions: for PSQI M3: global PSQI score at month 3; for PSQI M3 / PSQI M4: With CBD (daily dosage per group, the 2nd table r16-r22); for PSQI M4: global PSQI score at month 4; for ΔPSQI (%): improvement of PSQI from M0 to M4
Description: Some experiment showing the effect of the combination of CBD and four different omega-3 compounds (Fish Oil (Non-polar DHA+EPA), Fish oil (Non-polar EPA), Schizochytrium Oil (Non-Polar DHA), Nannochloropsis Oil (polar EPA)) were conducted. Daily dosage of omega 3 (DHA and/or EPA) was […].
Materials: CBD: Fish oil (non-polar DHA+EPA), Schizochytrium Oil (non-polar DHA), Nannochloropsis Oil (polar-EPA), Fish oil (non-polar EPA).
Experimental Design: Sleep quality was the measured in this study, as an efficacy indication. The experiment included 6 groups (3 participants per group) 8 women and 10 men, with similar Pittsburgh Sleep Quality Index (PSQI) rating (11-13), indicating poor sleeping quality. The average age for the participants was 37.2. All 18 participants completed sleep assessments at the onset of CBD treatment and at the monthly follow-ups.
All participants were given CBD and/or Omega 3 every evening, after dinner, per table 1 below. Sleep quality was tracked on a monthly basis, for a period of up to 4 months, using the PSQI. This Index is a self-report measure that assesses the quality of sleep during a 1-month period. […] The PSQI measures several different aspects of sleep, offering seven component scores and one composite score. The component scores consist of subjective sleep quality, sleep latency (i.e., how long it takes to fall asleep), sleep duration, habitual sleep efficiency (i.e., the percentage of time in bed that one is asleep), sleep disturbances, use of sleeping medication, and daytime dysfunction.
Each item is weighted on a 0-3 interval scale. The global PSQI score was calculated by totaling the seven component scores, providing an overall score ranging from 0 to 21, where lower scores denote a healthier sleep quality. A higher number indicates more sleep-related concerns. A score of 5 or greater indicates a “poor sleeper”.

SMILES	frequency of arousals during the night ([1]; high-dose (160 mg/day) CBD)	total sleep time ([1]; high-dose (160 mg/day) CBD)	wakefulness ([1]; low-dose CBD)	effect on PSQI score / sleep quality, in words ([2]; comparison between groups)	PSQI M3 [2]	PSQI M4 [2]	ΔPSQI (%) [2]	Sedation ([2]; sedation effect Y/N during CBD treatment, listed as High-dose CBD)	improvement of PSQI score, months 3-4 ([2]; months with CBD)
C=C(C)[C@@H]1CCC(C)=C[C@H]1c1c(O)cc(CCCCC)cc1O [CBD, Cannabidiol]	decreased the frequency of arousals during the night	increased total sleep time	increased wakefulness	–	–	–	–	–	–
C=C(C)[C@@H]1CCC(C)=C[C@H]1c1c(O)cc(CCCCC)cc1O [Group A, Cannabidiol]	–	–	–	more efficient that low-dose CBD in improving PSQI score	6.7	4.6	62%	had a sedation effect	–
C=C(C)[C@@H]1CCC(C)=C[C@H]1c1c(O)cc(CCCCC)cc1O [Group B, Cannabidiol]	–	–	–	–	11.3	9.3	24%	–	~ 18%
